What was measured:
Assay in all cases: relative viability (nuclei count vs DMSO), 5 days (fraction); higher = more cells survive
[1] = compound: CS(=O)(=O)c1ccc(-c2cnc(N)c(C(=O)Nc3ccccc3)n2)cc1 [VE-821] + CC1(C)CCC(c2ccc(Cl)cc2)=C(CN2CCN(c3ccc(C(=O)NS(=O)(=O)c4ccc(N[C@H](CCN5CCOCC5)CSc5ccccc5)c(S(=O)(=O)C(F)(F)F)c4)cc3)CC2)C1 [Navitoclax] (partner 0.5 µM)
Method in brief: (§1)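 Relative viability was taken as the ratio of nuclei in treated wells to nuclei in vehicle wells. Lung cancer cell lines in 1536-well plates received compounds by pin tool one day after seeding, either one drug alone or a fixed anchor-drug dose plus five library-drug doses (not always all listed) in √10 steps. Nuclei were counted on 4× images after 5 days of treatment, and values are medians of duplicate plates.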

[2] = compound: CS(=O)(=O)c1ccc(-c2cnc(N)c(C(=O)Nc3ccccc3)n2)cc1 [VE-821] + O=C(CCCCCCC(=O)Nc1ccccc1)NO [Vorinostat] (partner 1 µM)
Method in brief: as §1

[3] = compound: CS(=O)(=O)c1ccc(C(=O)Nc2ccc(Cl)c(-c3ccccn3)c2)c(Cl)c1 [Vismodegib] + O=C(CCCCCCC(=O)Nc1ccccc1)NO [Vorinostat] (partner 1 µM)
Method in brief: as §1

| Cell Line | relative viability ([1]; first compound 0.08 µM) | relative viability ([1]; first compound 0.253 µM) | relative viability ([1]; first compound 0.8 µM) | relative viability ([1]; first compound 2.53 µM) | relative viability ([1]; first compound 8 µM) | relative viability ([2]; first compound 0.08 µM) | relative viability ([2]; first compound 0.253 µM) | relative viability ([2]; first compound 0.8 µM) | relative viability ([2]; first compound 2.53 µM) | relative viability ([2]; first compound 8 µM) | relative viability ([3]; first compound 0.08 µM) | relative viability ([3]; first compound 0.253 µM) | relative viability ([3]; first compound 0.8 µM) | relative viability ([3]; first compound 2.53 µM) | relative viability ([3]; first compound 8 µM) |
| --- | --- | --- | --- | --- | --- | --- | --- | --- | --- | --- | --- | --- | --- | --- | --- |
| 201T | 1.23 | 1.2 | 1.21 | 1.32 | 1.12 | 0.991 | 0.947 | 0.992 | 1.01 | 0.752 | 0.956 | 0.952 | 0.973 | 0.977 | 0.924 |
| A549 | 1.48 | 1.21 | 1.18 | 1.04 | 0.544 | – | – | – | – | – | – | – | – | – | – |
| A-427 | 0.928 | 0.945 | 1.04 | 0.981 | 0.625 | 0.872 | 0.795 | 0.83 | 0.806 | 0.51 | 0.923 | 0.862 | 0.814 | 0.872 | 0.84 |
| ABC-1 | – | – | – | – | – | 1.32 | 1.06 | 1.11 | 1.26 | 1.01 | 1.55 | 0.987 | 0.873 | 1.23 | 1.24 |
| BEN | 0.0647 | 0.0527 | 0.059 | 0.0551 | 0.0693 | 0.557 | 0.597 | 0.529 | 0.587 | 0.594 | 0.581 | 0.527 | 0.578 | 0.531 | 0.528 |
| CAL-12T | 1.21 | 1.26 | 1.22 | 1.05 | 1.1 | 0.931 | 0.762 | 0.826 | 0.833 | 0.686 | 0.894 | 0.699 | 0.787 | 0.705 | 0.799 |
| COR-L23 | 1.05 | 1.01 | 1.23 | 1.15 | 0.894 | 0.418 | 0.561 | 0.36 | 0.373 | 0.157 | 0.408 | 0.478 | 0.388 | 0.384 | 0.451 |
| COR-L 105 | 0.797 | 0.683 | 0.651 | 0.606 | 0.725 | 0.865 | 0.883 | 0.638 | 0.718 | 0.56 | 0.94 | 0.803 | 0.829 | 0.826 | 0.71 |
| Calu-6 | 0.845 | 0.828 | 0.791 | 0.648 | 0.35 | – | – | – | – | – | – | – | – | – | – |
| ChaGo-K-1 | 0.929 | 1.06 | 1.22 | 1.03 | 0.594 | 0.769 | 0.747 | 0.734 | 0.803 | 0.682 | 0.761 | 0.739 | 0.799 | 0.754 | 0.708 |
| EBC-1 | 0.44 | 0.412 | 0.399 | 0.254 | 0.221 | – | – | – | – | – | – | – | – | – | – |
| EKVX | 1.17 | 0.975 | 0.632 | 1.01 | 0.907 | 0.961 | 0.665 | 0.707 | 0.81 | 0.452 | 0.77 | 0.752 | 0.802 | 0.907 | 0.655 |
| EMC-BAC-2 | 1.23 | 1.12 | 1.2 | 1.21 | 1.16 | 0.495 | 0.423 | 0.431 | 0.416 | 0.338 | 0.515 | 0.302 | 0.418 | 0.476 | 0.422 |
| EPLC-272H | 1.52 | 1.13 | 1.33 | 1.12 | 1.35 | 0.575 | 0.378 | 0.332 | 0.428 | 0.157 | 0.398 | 0.368 | 0.49 | 0.329 | 0.509 |
| H3255 | 0.563 | 0.485 | 0.571 | 0.56 | 0.425 | 0.953 | 0.742 | 0.915 | 0.772 | 0.805 | 0.488 | 0.747 | 0.915 | 0.835 | 0.782 |
| LCLC-103H | – | – | – | – | – | 0.863 | 0.772 | 0.783 | 0.834 | 0.592 | 0.74 | 0.733 | 0.613 | 0.749 | 0.539 |
| NCI-H358 | – | – | – | – | – | 0.737 | 0.694 | 0.712 | 0.608 | 0.329 | 0.831 | 0.677 | 0.696 | 0.68 | 0.728 |
| NCI-H522 | – | – | – | – | – | 1.02 | 0.811 | 0.921 | 0.994 | 0.732 | 1.02 | 0.886 | 0.808 | 0.941 | 0.806 |
| NCI-H650 | – | – | – | – | – | 0.443 | 0.403 | 0.395 | 0.471 | 0.409 | 0.434 | 0.413 | 0.353 | 0.392 | 0.488 |
| NCI-H661 | – | – | – | – | – | 0.839 | 0.836 | 0.815 | 0.783 | 0.627 | 0.785 | 0.768 | 0.841 | 0.737 | 0.763 |
| NCI-H1299 | 1.05 | 1.04 | 1.01 | 1 | 1.03 | – | – | – | – | – | – | – | – | – | – |
| NCI-H1648 | – | – | – | – | – | 0.483 | – | 0.485 | 0.532 | 0.641 | 0.607 | 0.757 | 0.389 | 0.465 | 0.512 |
| NCI-H1703 | 1.25 | 0.923 | 1.17 | 0.394 | 0.246 | – | – | – | – | – | – | – | – | – | – |
| NCI-H1792 | 0.66 | 0.639 | 0.63 | 0.685 | 0.623 | – | – | – | – | – | – | – | – | – | – |
| NCI-H2342 | – | – | – | – | – | 0.702 | 0.673 | 0.723 | 0.774 | 0.841 | 0.747 | 0.597 | 0.805 | 0.735 | 0.652 |
| SW 900 | – | – | – | – | – | 0.503 | 0.449 | 0.453 | 0.305 | 0.341 | 0.457 | 0.415 | 0.435 | – | 0.602 |

From the supplement of paper PMC10307832
